What was measured:
[1] = test system: BEAS-2B cell line; test: Mitophagy activity in BEAS-2B cells expressing mt-Keima (FACS, confocal microscope, mito-YFP); assay type: cell-based, human
Experimental: To analyze the mitophagy-promoting activity effect of the CD1-012 synthesized in the Example 1, the BEAS-2B cell line, which is a human normal lung cell line, was induced to express the mt-Keima fluorescent protein. Following this, the CD1-012 (15 μM) and the compound of Comparative Example 1, CCCP (10 μM), were treated for 24 hours. After the treatment, the mitophagy activity of each sample was measured, and the results were represented in FIGS. 1A to 1C.
Specifically, FIG. 1A represents the analysis results using flow cytometry (FACS) (treatment of CD1-012 at 15 μM for 24 hours), FIG. 1B represents the analysis results using a confocal microscope (treatment of CD1-012 at 15 μM for 18 hours), and FIG. 1C represents the measurement results of the quantitative changes in the mitochondria using a fluorescent protein, mito-YFP, which includes a targeting sequence to transport protein to the mitochondria (treatment of CD1-012 at 20 μM for 24 hours).
It was confirmed whether CD1-012 synthesized in Example 1 promotes mitophagy activity in a concentration- and time-dependent manner. To this end, the CD1-012 was treated at various concentrations or at a fixed concentration (15 μM) for different treatment durations in the BEAS-2B cell line expressing mt-Keima, and mitophagy activity was measured using a flow cytometer.
It was confirmed whether CD1-012 synthesized in Example 1 specifically increases only mitophagy activity. To this end, the BEAS-2B cell line expressing mt-Keima was treated with CD1-012 (15 μM) or Comparative Example 1 (CCCP, 10 μM) for 18 hours, and mitophagy activity was analyzed using a confocal microscope. Additionally, to measure autophagy activity, the BEAS-2B cell line expressing Keima fluorescent protein was incubated in Hanks' balanced salt solution (HBSS) for 3 hours to induce a starvation condition (starv.), and the results were compared with samples treated with CD1-012 (15 μM) for 18 hours using a confocal microscope.
To this end, the human normal lung cell line BEAS-2B, expressing mt-Keima fluorescent protein, was treated with CD1-012, Comparative Example 2 (palmatine), or Comparative Example 3 (berberine) at various concentrations, and the mitophagy-inducing activity of each sample was compared.

[2] = test system: PINK1-deficient Drosophila (B9); test: Mitochondrial function in Drosophila model of Parkinson's disease; assay type: in vivo
Experimental: In this example, to further verify the effect of the compound of the present invention (CD1-012) on improving mitochondrial dysfunction, a Drosophila model of Parkinson's disease was used. To this end, after administering CD1-012 to PINK1 gene-deficient Drosophila, mitochondrial function was analyzed. […] As a result, the number of damaged mitochondria (with abnormally swollen morphology) observed in the PINK1-deficient Drosophila was reduced in the CD1-012-treated group as compared to an untreated control (FIG. 9A). […] In addition, after 2 weeks of CD1-012 administration, it could be observed that the ATP production capacity of the brain tissue of the PINK11-deficient Drosophila was restored (FIG. 9C).

[3] = test system: wild type (WT) and PINK1-deficient (PINK1−/−) mouse embryonic fibroblasts (MEFs); test: Mitochondrial protein Cox2 level by western blotting in WT and PINK1-deficient MEFs; assay type: cell-based; conditions: 40 μM, 24 hours (FIG. 8A)
[4] = test system: SH-SY5Y cell line; test: Mitophagy activity in SH-SY5Y cells expressing mt-Keima (FACS); assay type: cell-based, human; conditions: FACS (FIG. 2A)
Experimental: It was confirmed whether CD1-012 synthesized in Example 1 increases mitophagy activity in various cell lines. To this end, CD1-012 and Comparative Example 1 (CCCP) were treated in the SH-SY5Y cell line, a human neuroblastoma cell line expressing mt-Keima fluorescent protein, and in the HeLa-Parkin cell line, a HeLa cervical cancer cell line expressing Parkin (E3 ligase). Following this treatment, the mitophagy activity of each sample was analyzed using flow cytometry (FACS), and the results are shown in FIGS. 2A to 2B.

[5] = test system: PINK1-deficient MEFs; test: Mitochondrial function in PINK1-deficient MEFs (TMRM, MitoSOX-Red, ATP production); assay type: cell-based, mouse; conditions: 40 μM for 24 hours
Experimental: Subsequently, PINK1-deficient MEFs were treated with CD1-012 at a concentration of 40 μM for 24 hours, and 4 days later, mitochondrial function as analyzed. The mitochondrial membrane potential was analyzed by the tetramethyl rhodamine methyl ester (TMRM) assay, and mitochondrial ROS was analyzed using the MitoSOX-Red assay. […] Conversely, the level of mitochondrial ROS, which was elevated compared to the wild-type cells, was reduced by CD1-012 treatment (FIG. 8D).

[6] = test system: mitochondrial membrane potential; test: Mitochondrial membrane potential, TMRM assay; assay type: cell-based; conditions: CD1-012 10 μM or 15 μM, CCCP 10 μM, 24 hours (FIG. 6)
Experimental: It was confirmed whether the isoquinoline derivative according to the present invention induces mitochondrial dysfunction, similar to CCCP. To this end, the CD1-012 (10 μM or 15 μM) and CCCP (10 μM) were treated for 24 hours, and the mitochondrial membrane potential and mitochondrial reactive oxygen species (ROS) levels in each sample were analyzed. Mitochondrial membrane potential was analyzed using the TMRM (tetramethylrhodamine methyl ester) assay, and mitochondrial ROS levels were analyzed using the MitoSOX assay.

[7] = test system: mouse model of Parkinson's disease established by injecting MPTP; test: Motor performance (pole test, Rota-rod test) in MPTP mouse model of Parkinson's disease; assay type: in vivo
Experimental: In this example, the effect of the compound of the present invention (CD1-012) on treating Parkinson's disease was confirmed using a mouse model of Parkinson's disease. To this end, a mouse model of Parkinson's disease established by injecting the neurotoxin, 1-methyl-4-phenyl-1,2,3,6-tetrahydropyridine (MPTP), was used. After nasal administration of CD1-012 at a concentration of 1 mg/kg daily for 2 weeks to the mouse model, motor performance was analyzed using the pole test and Rota-rod test (FIG. 11A).

## Oc1cc2c(cc1O)-c1cc3ccc(O)c(O)c3c[n+]1CC2 [CD1-012, 2,3,9,10-tetrahydroxy-5,6-dihydroisoquinolino[3,2-a]isoquinolin-7-ium bromide]
[1]; 15 μM (FIG. 3B)
  treatment time after which mitophagy activity began to significantly increase: 3 h
  treatment time at which mitophagy activity reached its maximum level: 18 h
[1]; BEAS-2B mt-Keima (FIG. 5)
  concentration at which mitophagy activity reached a level comparable to the maximum of palmatine and berberine: 10 µM
  mitophagy-inducing activity relative to berberine: approximately 8 times
  mitophagy-inducing activity relative to palmatine: approximately 40 times
[1]; BEAS-2B mt-Keima, flow cytometer (FIG. 3A)
  concentration at which mitophagy activity began to significantly increase compared to untreated control: ≥ 7.5 µM
[1]; BEAS-2B mt-Keima, 15 μM 24 h (FACS), 15 μM 18 h (confocal), 20 μM 24 h (mito-YFP)
  mitophagy activity compared to the untreated control group (Con): significant increase in mitophagy activity
[1]; CD1-012 15 μM, CCCP 10 μM, 18 hours (FIG. 4A)
  mitophagy-promoting effect compared with CCCP (confocal microscope): mitophagy-promoting effects similar to those observed in the CCCP-treated sample
[1]; FACS, CD1-012 15 μM, CCCP 10 μM, 24 hours
  mitophagy activity compared with CCCP-treated sample (FIG. 1A): increased as significantly as that of the sample treated with the representative mitophagy promoting compound, CCCP
[1]; up to the maximum treatment concentration of 17.5 μM (FIG. 3A)
  concentration dependence of mitophagy activity: continued to increase in a concentration-dependent manner
[2]; 1 mM for 2 weeks (FIG. 9B)
  mitochondrial ROS in brain tissue (DCF-DA staining): significantly inhibited
[2]; 1 mM for 2 weeks, brain tissue (FIG. 9A)
  number of damaged mitochondria (abnormally swollen morphology) in dopaminergic neurons compared to untreated control: reduced
[2]; 2 weeks of administration (FIG. 9C)
  ATP production capacity of brain tissue: restored
[3]
  Cox2 protein level: significantly decreased
[4]
  mitophagy activity compared to the control group (Con): significantly increased mitophagy activity
[5]; analyzed 4 days later (FIG. 8E)
  mitochondrial ATP production (reduced in PINK1-deficient cells): restored
[5]; analyzed 4 days later, MitoSOX-Red (FIG. 8D)
  level of mitochondrial ROS (elevated in PINK1-deficient cells): reduced
[5]; analyzed 4 days later, TMRM (FIG. 8C)
  mitochondrial membrane potential (decreased in PINK1-deficient cells): restored
[6]
  mitochondrial membrane potential: no decrease in mitochondrial membrane potential was observed
[7]; MPTP mice, nasal 1 mg/kg daily for 2 weeks (FIG. 11B)
  pole test, motor performance (time to reach the ground): recovered to a level equivalent to that of the normal control
[7]; MPTP mice, nasal 1 mg/kg daily for 2 weeks (FIG. 11C)
  Rota-rod test, time spent on the cylinder: markedly recovered
[7]; normal mice, CD1-012 alone
  motor performance of normal mice administered CD1-012 alone compared to untreated normal control (toxicity): no significant difference in motor performance
